Experimental data: the supplement of paper PMC8149375

Tests used:
Settings in all cases: treatment: drug + dasatinib (fixed dose, not stated); 5 days
[1] = tested on: TK-10; assay: minimum viability across doses, drug + dasatinib, relative to DMSO (fraction); higher = less growth inhibition
Protocol: (§1)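 Primary HTS combination arm: 8 RCC cell lines treated with 8 doses (up to 10 uM) of each library drug plus a fixed dose of dasatinib (dose not stated) for 5 days; viability read by CellTiter-Glo and normalised to DMSO. GI50 was fitted with XLfit, AUC is the area under the dose-response curve, and minimum viability is the lowest fraction of DMSO viability across doses.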

[2] = tested on: ACHN; assay: as above
Protocol: as §1

[3] = tested on: 769-P; assay: as above
Protocol: as §1

[4] = tested on: CAKI-1; assay: as above
Protocol: as §1

[5] = tested on: UO-31; assay: as above
Protocol: as §1

[6] = tested on: 786-O; assay: as above
Protocol: as §1

[7] = tested on: A498; assay: as above
Protocol: as §1

[8] = tested on: SN12C; assay: as above
Protocol: as §1

[9] = tested on: TK-10; assay: GI50 of drug in presence of dasatinib; higher = less potent
Protocol: as §1

[10] = tested on: ACHN; assay: as above
Protocol: as §1

[11] = tested on: 769-P; assay: as above
Protocol: as §1

[12] = tested on: CAKI-1; assay: as above
Protocol: as §1

[13] = tested on: UO-31; assay: as above
Protocol: as §1

[14] = tested on: 786-O; assay: as above
Protocol: as §1

[15] = tested on: A498; assay: as above
Protocol: as §1

[16] = tested on: SN12C; assay: as above
Protocol: as §1

[17] = tested on: TK-10; assay: AUC of dose-response viability curve, drug + dasatinib, normalised to DMSO (arbitrary (AUC of normalised viability)); higher = less growth inhibition
Protocol: as §1

[18] = tested on: ACHN; assay: as above
Protocol: as §1

[19] = tested on: 769-P; assay: as above
Protocol: as §1

[20] = tested on: CAKI-1; assay: as above
Protocol: as §1

[21] = tested on: UO-31; assay: as above
Protocol: as §1

[22] = tested on: 786-O; assay: as above
Protocol: as §1

[23] = tested on: A498; assay: as above
Protocol: as §1

[24] = tested on: SN12C; assay: as above
Protocol: as §1

Structure (SMILES) | minimum viability across doses [1] | minimum viability across doses [2] | minimum viability across doses [3] | minimum viability across doses [4] | minimum viability across doses [5] | minimum viability across doses [6] | minimum viability across doses [7] | minimum viability across doses [8] | GI50 of drug [9] [nM] | GI50 of drug [10] [nM] | GI50 of drug [11] [nM] | GI50 of drug [12] [nM] | GI50 of drug [13] [nM] | GI50 of drug [14] [nM] | GI50 of drug [15] [µM] | GI50 of drug [16] [nM] | AUC of dose-response viability curve [17] | AUC of dose-response viability curve [18] | AUC of dose-response viability curve [19] | AUC of dose-response viability curve [20] | AUC of dose-response viability curve [21] | AUC of dose-response viability curve [22] | AUC of dose-response viability curve [23] | AUC of dose-response viability curve [24]
O=C(O)c1ccc(Nc2ncc3c(n2)-c2ccc(Cl)cc2C(c2c(F)cccc2F)=NC3)cc1 [MLN8054] + Cc1nc(Nc2ncc(C(=O)Nc3c(C)cccc3Cl)s2)cc(N2CCN(CCO)CC2)n1 [dasatinib] | 0.585 | 0.219 | 0.306 | 0.277 | 0.645 | 0.157 | 0.354 | 0.425 | > 10000 | 398 | 1190 | 641 | > 10000 | 641 | 4.23 | 3920 | 2.58 | 1.77 | 2.14 | 1.93 | 2.92 | 2.01 | 2.68 | 2.22
Cc1ccc(NC(=O)c2ccc(CN3CCN(C)CC3)cc2)cc1Nc1nc(-c2cccnc2)cs1 [Masitinib (AB1010)] + Cc1nc(Nc2ncc(C(=O)Nc3c(C)cccc3Cl)s2)cc(N2CCN(CCO)CC2)n1 [dasatinib] | 0.57 | 0.263 | 0.377 | 0.438 | 0.271 | 0.204 | 0.622 | 0.484 | > 10000 | 460 | 4700 | 6750 | 6090 | 4050 | > 10 | > 10000 | 2.71 | 1.96 | 2.3 | 2.28 | 3.05 | 2.55 | 3.05 | 2.51
CC1(C)CNc2cc(NC(=O)c3cccnc3NCc3ccncc3)ccc21.O=P(O)(O)O.O=P(O)(O)O [Motesanib Diphosphate] + Cc1nc(Nc2ncc(C(=O)Nc3c(C)cccc3Cl)s2)cc(N2CCN(CCO)CC2)n1 [dasatinib] | 0.724 | 0.512 | 0.599 | 0.542 | 0.944 | 0.714 | 0.877 | 0.711 | > 10000 | > 10000 | > 10000 | > 10000 | > 10000 | > 10000 | > 10 | > 10000 | 2.87 | 2.3 | 2.34 | 2.39 | 3.93 | 2.74 | 3.26 | 2.56
FC(F)(F)c1ccc(/C=C/c2nc(COc3ccc(CCCCn4ccnn4)cc3)co2)cc1 [Mubritinib (TAK 165)] + Cc1nc(Nc2ncc(C(=O)Nc3c(C)cccc3Cl)s2)cc(N2CCN(CCO)CC2)n1 [dasatinib] | 0.168 | 0.183 | 0.539 | 0.543 | 0.124 | 0.0257 | 0.231 | 0.0505 | 146 | 31.4 | > 10000 | > 10000 | 74.7 | 23.8 | 0.243 | 41.6 | 1.56 | 1.26 | 2.32 | 2.17 | 1.66 | 0.96 | 1.99 | 1.09
Nc1ncnc2c1c(-c1cccc(OCc3ccccc3)c1)cn2[C@H]1C[C@H](CN2CCCC2)C1 [NVP-ADW742] + Cc1nc(Nc2ncc(C(=O)Nc3c(C)cccc3Cl)s2)cc(N2CCN(CCO)CC2)n1 [dasatinib] | 0.124 | 0.147 | 0.278 | 0.0883 | 0.0171 | 0.172 | 0.296 | 0.48 | 3390 | 129 | 5140 | 1290 | 2490 | 3280 | 8.96 | > 10000 | 2.44 | 1.77 | 2.45 | 2 | 2.57 | 2.33 | 3.18 | 2.44
COc1ccc(-c2ccc3ncc4c(c3c2)n(-c2ccc(N3CCNCC3)c(C(F)(F)F)c2)c(=O)n4C)cn1.O=C(O)/C=C\C(=O)O [NVP-BGT226] + Cc1nc(Nc2ncc(C(=O)Nc3c(C)cccc3Cl)s2)cc(N2CCN(CCO)CC2)n1 [dasatinib] | 0.00345 | 0.00153 | 0.00834 | 0.00249 | 0.0107 | 0.00462 | 0.0127 | 0.00253 | 12.2 | 4.38 | 15.9 | 10.1 | 14.2 | 5.3 | 0.02 | 6.06 | 0.725 | 0.453 | 0.87 | 0.631 | 0.779 | 0.402 | 0.972 | 0.601
Cc1ccc(C(=O)Nc2cccc(C(F)(F)F)c2)cc1Nc1nc(-c2cccnc2)nc2c1cnn2C [NVP-BHG712] + Cc1nc(Nc2ncc(C(=O)Nc3c(C)cccc3Cl)s2)cc(N2CCN(CCO)CC2)n1 [dasatinib] | 0.0343 | 0.126 | 0.0398 | 0.026 | 0.00794 | 0.00229 | 0.0233 | 0.0536 | 1070 | 511 | 1640 | 506 | 3110 | 491 | 4.42 | 6860 | 2.1 | 1.8 | 2.16 | 1.87 | 3.61 | 1.66 | 3.17 | 2.37
Cl.Cl.Fc1cc(-c2cccc3ncc(-c4cnn(C5CCNCC5)c4)nc23)cc(F)c1CN1CCOCC1 [NVP-BSK805] + Cc1nc(Nc2ncc(C(=O)Nc3c(C)cccc3Cl)s2)cc(N2CCN(CCO)CC2)n1 [dasatinib] | 0.108 | 0.0139 | 0.37 | 0.0163 | 0.0214 | 0.00448 | 0.0371 | 0.127 | 1420 | 380 | 3940 | 962 | 2940 | 44.1 | 5.13 | 2430 | 2.08 | 1.64 | 2.29 | 1.9 | 3.35 | 1.85 | 3.09 | 2.15
Cn1cc(-c2ccc3ncc(Cc4ccc5ncccc5c4)n3n2)cn1 [NVP-BVU972] + Cc1nc(Nc2ncc(C(=O)Nc3c(C)cccc3Cl)s2)cc(N2CCN(CCO)CC2)n1 [dasatinib] | 0.119 | 0.0103 | 0.0263 | 0.0417 | 0.0147 | 0.00818 | 0.0158 | 0.0116 | 836 | 15.4 | 1150 | 303 | 2040 | 361 | 1.44 | 1900 | 2.03 | 1.28 | 2.06 | 1.71 | 3.81 | 1.79 | 3.44 | 2.12
CNC(=O)c1ccccc1Nc1nc(Nc2ccc(N3CCOCC3)cc2OC)ncc1Cl [NVP-TAE226] + Cc1nc(Nc2ncc(C(=O)Nc3c(C)cccc3Cl)s2)cc(N2CCN(CCO)CC2)n1 [dasatinib] | 0.0355 | 0.0673 | 0.085 | 0.0135 | 0.00626 | 0.00641 | 0.201 | 0.132 | 202 | 27.4 | 750 | 107 | 334 | 26.7 | 5.88 | 335 | 1.64 | 1.19 | 1.98 | 1.34 | 2.35 | 1.1 | 3.26 | 1.91
COc1ccc(C2=NC(c3ccc(Cl)cc3)C(c3ccc(Cl)cc3)N2C(=O)N2CCNC(=O)C2)c(OC(C)C)c1 (configuration not stated) [Nutlin-3] + Cc1nc(Nc2ncc(C(=O)Nc3c(C)cccc3Cl)s2)cc(N2CCN(CCO)CC2)n1 [dasatinib] | 0.665 | 0.2 | 0.519 | 0.168 | 0.583 | 0.707 | 0.905 | 0.712 | > 10000 | 2000 | > 10000 | 2420 | > 10000 | > 10000 | > 10 | > 10000 | 2.5 | 1.89 | 2.54 | 2.15 | 4.46 | 2.83 | 3.61 | 2.62
COc1cccc2cc(-c3nc([C@H]4CC[C@H](C(=O)O)CC4)n4ncnc(N)c34)[nH]c12 [OSI-027] + Cc1nc(Nc2ncc(C(=O)Nc3c(C)cccc3Cl)s2)cc(N2CCN(CCO)CC2)n1 [dasatinib] | 0.152 | 0.0877 | 0.227 | 0.0226 | 0.00633 | 0.0675 | 0.139 | 0.15 | 1100 | 322 | 2380 | 341 | 2240 | 252 | 4.02 | 1110 | 2.23 | 1.67 | 2.25 | 1.65 | 2.91 | 1.84 | 3.08 | 2.05
C#Cc1cccc(Nc2ncnc3cc(OCCOC)c(OCCO)cc23)c1.Cl [OSI-420 (Desmethyl Erlotinib)] + Cc1nc(Nc2ncc(C(=O)Nc3c(C)cccc3Cl)s2)cc(N2CCN(CCO)CC2)n1 [dasatinib] | 0.379 | 0.0775 | 0.226 | 0.11 | 0.325 | 0.403 | 0.761 | 0.442 | 2320 | 23.1 | 510 | 1070 | 8630 | < 3 | > 10 | > 10000 | 2.18 | 1.35 | 1.96 | 1.93 | 3.77 | 2.22 | 3.08 | 2.36
